Source: patent US9440950B2, “Arginine methyltransferase inhibitors and uses thereof” (Epizyme, Inc., priority 2013, dated 2016)

system: Mono-Methyl Arginine in RKO cells; assay: RKO Methylation Assay (In Cell Western); type: cell-based; conditions: Homo sapiens, 72 hours, percent activation
Description: RKO Methylation Assay RKO adherent cells were purchased from ATCC (American Type Culture Collection), Manassas, Va., USA. DMEM/Glutamax medium, penicillin-streptomycin, heat inactivated fetal bovine serum, 0.05% trypsin and D-PBS were purchased from Life Technologies, Grand Island, N.Y., USA. Odyssey blocking buffer, 800CW goat anti-rabbit IgG (H+L) antibody, and Licor Odyssey infrared scanner were purchased from Licor Biosciences, Lincoln, Nebr., USA. Mono-methyl arginine antibody was purchased from Cell Signaling Technology, Danvers, Mass., USA. Methanol was purchased from VWR, Franklin, Mass., USA. 10% Tween 20 was purchased from KPL, Inc., Gaithersburg, Md., USA. DRAQ5 was purchased from Biostatus Limited, Leicestershire, UK. RKO adherent cells were maintained in growth medium (DMEM/Glutamax medium supplemented with 10% v/v heat inactivated fetal bovine serum and 100 units/mL penicillin-streptomycin) and cultured at 37° C. under 5% CO2. Cell Treatment, In Cell Western (ICW) for Detection of Mono-Methyl Arginine and DNA Content. RKO cells were seeded in assay medium at a concentration of 20,000 cells per mL to a poly-D-lysine coated 384 well culture plate (BD Biosciences 356697) with 50 μL per well. Compound (100 nL) from a 96-well source plate was added directly to 384 well cell plate. Plates were incubated at 37° C., 5% CO2 for 72 hours. After three days of incubation, plates were brought to room temperature outside of the incubator for ten minutes and blotted on paper towels to remove cell media. 50 μL of ice cold 100% methanol was added directly to each well and incubated for 30 min at room temperature. After 30 min, plates were transferred to a Biotek EL406 plate washer and washed 2 times with 100 μL per well of wash buffer (IX PBS). Next 60 μL per well of Odyssey blocking buffer (Odyssey Buffer with 0.1% Tween 20 (v/v)) were added to each plate and incubated 1 hour at room temperature. Blocking buffer was removed and 20 μL per well of primary antibody was added (mono-methyl arginine diluted 1:200 in Odyssey buffer with 0.1% Tween 20 (v/v)) and plates were incubated overnight (16 hours) at 4° C. Plates were washed 5 times with 100 μL per well of wash buffer. Next 20 μL per well of secondary antibody was added (1:200 800CW goat anti-rabbit IgG (H+L) antibody, 1:1000 DRAQ5 (Biostatus limited) in Odyssey buffer with 0.1% Tween 20 (v/v)) and incubated for 1 hour at room temperature. The plates were washed 5 times with 100 μL per well wash buffer then 2 times with 100 μL per well of water. Plates were allowed to dry at room temperature then imaged on the Licor Odyssey machine which measures integrated intensity at 700 nm and 800 nm wavelengths. Both 700 and 800 channels were scanned. Calculations: First, the ratio for each well was determined by: Each plate included fourteen control wells of DMSO only treatment (minimum activation) as well as fourteen control wells for maximum activation treated with 20 μM of a reference compound. The average of the ratio values for each control type was calculated and used to determine the percent activation for each test well in the plate. Reference compound was serially diluted three-fold in DMSO for a total of nine test concentrations, beginning at 20 μM. Percent activation was determined and EC30 curves were generated using triplicate wells per concentration of compound.

| SMILES | EC30 |
| --- | --- |
| COc1ccc(-c2n[nH]cc2CN(C)CCN)cn1 [Compound 5] | > 12 µM |
| CN(CCN)Cc1c[nH]nc1-c1cncc(F)c1 [Compound 7] | > 12 µM |
| CN(CCN)Cc1c[nH]nc1-c1ccncc1 [Compound 9] | 3.01 to 12 µM |
| COc1cc(-c2n[nH]cc2CN(C)CCN)ccn1 [Compound 11] | 3.01 to 12 µM |
| COc1cc(-c2n[nH]cc2CN(C)CCN)c(Cl)cn1 [Compound 12] | > 12 µM |
| CN(CCN)Cc1c[nH]nc1-c1ccc(C(F)(F)F)nc1 [Compound 13, N^1-methyl-N^1-((3-(6-(trifluoromethyl)pyridin-3-yl)-1H-pyrazol-4-yl)methyl)ethane-1,2-diamine] | < 3 µM |
| COc1ncc(Cl)cc1-c1n[nH]cc1CN(C)CCN [Compound 14] | > 12 µM |
| COc1ncccc1-c1n[nH]cc1CN(C)CCN [Compound 15] | > 12 µM |
| COc1ccncc1-c1n[nH]cc1CN(C)CCN [Compound 16] | > 12 µM |
| Cc1ccncc1-c1n[nH]cc1CN(C)CCN [Compound 17] | > 12 µM |
| CN(CCN)Cc1c[nH]nc1-c1cncc(C#N)c1 [Compound 18] | > 12 µM |
| CN(CCN)Cc1c[nH]nc1-c1cncc(Cl)c1 [Compound 19] | 3.01 to 12 µM |
| CN(CCN)Cc1c[nH]nc1-c1ccc(N2CCOCC2)nc1 [Compound 20] | 3.01 to 12 µM |
| CC(C)CN(C)c1ccc(-c2n[nH]cc2CN(C)CCN)cn1 [Compound 21] | 3.01 to 12 µM |
| CC(C)Oc1ccc(-c2n[nH]cc2CN(C)CCN)cn1 [Compound 22] | < 3 µM |
| CN(CCN)Cc1c[nH]nc1-c1ccc(N(C)Cc2ccccc2)nc1 [Compound 23] | 3.01 to 12 µM |
| CCN(CC)c1ccc(-c2n[nH]cc2CN(C)CCN)cn1 [Compound 24] | > 12 µM |
| CN(CCN)Cc1c[nH]nc1-c1ccc(NCc2ccccc2)nc1 [Compound 25] | 3.01 to 12 µM |
| CC(C)CNc1ccc(-c2n[nH]cc2CN(C)CCN)cn1 [Compound 26] | > 12 µM |
| CNCCN(C)Cc1c[nH]nc1-c1ccc(N(C)CCC(C)C)nc1 [Compound 30] | 3.01 to 12 µM |
| CNCCN(C)Cc1c[nH]nc1-c1ccc(N(CC(C)C)CC(C)C)nc1 [Compound 31] | > 12 µM |
| CNCCN(C)Cc1c[nH]nc1-c1ccc(N(C)CC(C)C)nc1 [Compound 32, N^1-((3-(6-(isobutyl(methyl)amino)pyridin-3-yl)-1H-pyrazol-4-yl)methyl)-N^1,N^2-dimethylethane-1,2-diamine] | < 3 µM |
| CNCCN(C)Cc1c[nH]nc1-c1ccc(N(C)C(C)C)nc1 [Compound 33, N^1-((3-(6-(isopropyl(methyl)amino)pyridin-3-yl)-1H-pyrazol-4-yl)methyl)-N^1,N^2-dimethylethane-1,2-diamine] | < 3 µM |
| CCN(CCC(C)C)c1ccc(-c2n[nH]cc2CN(C)CCNC)cn1 [Compound 34, N^1-((3-(6-(ethyl(isopentyl)amino)pyridin-3-yl)-1H-pyrazol-4-yl)methyl)-N^1,N^2-dimethylethane-1,2-diamine] | < 3 µM |
| CNCCN(C)Cc1c[nH]nc1-c1ccc(OCC(C)C)nc1 [Compound 35, N^1-((3-(6-iso-butoxypyridin-3-yl)-1H-pyrazol-4-yl)methyl)-N^1,N^2-dimethylethane-1,2-diamine] | < 3 µM |
| CCN(CC(C)C)c1ccc(-c2n[nH]cc2CN(C)CCNC)cn1 [Compound 36] | 3.01 to 12 µM |
